Like-named read-outs stand apart in the source and are kept apart here.

One experiment has as its target T1, mouse RORγ (Mus musculus, UniProt P51450).
T1 construct: mouse, NM_011281.2 and from Ile251 to Lys516; expressed in transfected cells; host or cells: CHO cells (transient co-transfection with pG5-Luc reporter)
T1 sequence (P51450 251-516): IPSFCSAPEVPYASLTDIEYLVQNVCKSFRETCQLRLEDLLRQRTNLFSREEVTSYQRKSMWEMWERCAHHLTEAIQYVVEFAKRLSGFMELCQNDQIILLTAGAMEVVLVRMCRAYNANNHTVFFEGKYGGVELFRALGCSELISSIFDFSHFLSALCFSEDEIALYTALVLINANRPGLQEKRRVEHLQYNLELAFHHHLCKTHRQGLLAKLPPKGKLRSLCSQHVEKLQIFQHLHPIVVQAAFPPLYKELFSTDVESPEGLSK
Briefly: Luciferase reporter gene assay of inhibitory effect against RORγ transcriptional activity (GAL4-mRORγ plasmid in CHO cells). The class given is cell-based. In outline: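 CHO cells transiently co-transfected with GAL4-mouse RORγ LBD (Ile251–Lys516) and GAL4-dependent luciferase reporter; eight compound concentrations, 0.1% DMSO, 2 days at 37 °C. Luminescence as %-of-vehicle control; EC50 by curve fit, cytotoxic concentrations excluded.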
A general note: In a reporter assay the amount or activity of a reporter protein is the signal.

A further experiment deals with T2, human RORγ (Homo sapiens, UniProt P51449).
T2 construct: human, NM_005060.3 and from Ser253 to Lys518; expressed in transfected cells; host or cells: CHO cells (transient co-transfection with pG5-Luc reporter)
T2 sequence (P51449 253-518): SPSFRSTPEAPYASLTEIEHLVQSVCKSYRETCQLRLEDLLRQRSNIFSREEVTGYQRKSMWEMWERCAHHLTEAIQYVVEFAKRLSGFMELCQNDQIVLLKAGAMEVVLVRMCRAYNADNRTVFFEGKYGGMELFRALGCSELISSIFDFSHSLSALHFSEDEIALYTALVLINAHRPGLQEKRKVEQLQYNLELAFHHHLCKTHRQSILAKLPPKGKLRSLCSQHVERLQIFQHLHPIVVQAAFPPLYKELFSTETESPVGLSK
Briefly: Luciferase reporter gene assay of inhibitory effect against RORγ transcriptional activity (GAL4-hRORγ plasmid in CHO cells). The class given is cell-based.

Broadly, the EC50 is the midpoint of the concentration-response curve. As to `CCC(CC)C[C@H]1C[C@H](c2nnc(CCC(=O)Nc3ccc(C)cc3C)n2C2CC2)C1` [Example F-495], the EC50 on mouse RORγ (read-out: LUC EC50 (μM) mRORg) and at human RORγ (read-out: LUC EC50 (μM) hRORg) was less than 3 µM each time.

As for `CCC(CC)C[C@H]1C[C@@H](c2nnc(CCC(=O)Nc3ccc(C)cc3C)n2C2CC2)C1` [Example F-496], the EC50 on mouse RORγ (read-out: LUC EC50 mRORg) and at human RORγ (read-out: LUC EC50 hRORg) was less than 3 µM throughout.

Consider `CC(=O)N1C[C@H](C(=O)Nc2ccc(C)cc2C)[C@@H](c2nnc(-c3cc(CC(C)C)no3)n2C2CC2)C1` [Example F-506], for which the EC50 at mouse RORγ (read-out: LUC EC50 mRORg) and on human RORγ (read-out: LUC EC50 hRORg) was less than 3 µM throughout.

Consider `CC(=O)N1C[C@@H](C(=O)Nc2ccc(C)cc2C)[C@H](c2nnc(-c3cc(CC(C)C)no3)n2C2CC2)C1` [Example F-507], for which the EC50 on mouse RORγ (read-out: LUC EC50 mRORg) and on human RORγ (read-out: LUC EC50 hRORg) was more than 3 µM each time.

In the case of `Cc1ccc(NC(=O)C[C@@H](CCCO)c2nnc([C@H]3C[C@@H](CC(C)C)C3)n2C2CC2)c(C)c1` [Example F-510], the half-maximal effective concentration (EC50) on mouse RORγ (read-out: LUC EC50 mRORg) and at human RORγ (read-out: LUC EC50 hRORg) was more than 3 µM throughout.

`Cc1ccc(NC(=O)C[C@H](CCCO)c2nnc([C@H]3C[C@@H](CC(C)C)C3)n2C2CC2)c(C)c1` [Example F-511]: the EC50 on mouse RORγ (read-out: LUC EC50 mRORg) and at human RORγ (read-out: LUC EC50 hRORg) was less than 3 µM in each case.

Turning to `CC(C)C[C@H]1C[C@@H](c2nnc([C@@H](CCO)CC(=O)Nc3ccc(F)cc3Cl)n2C2CC2)C1` [Example F-513], the EC50 at mouse RORγ (read-out: LUC EC50 mRORg) and on human RORγ (read-out: LUC EC50 hRORg) was less than 3 µM each time.

As for `Cc1ccc(NC(=O)C[C@@H](c2nnc([C@H]3C[C@@H](CC(C)C)C3)n2C2CC2)N(C)C)c(C)c1` [Example F-516], the EC50 on mouse RORγ (read-out: LUC EC50 mRORg) and on human RORγ (read-out: LUC EC50 hRORg) was less than 3 µM throughout.

Turning to `CC(C)C[C@H]1C[C@@H](c2nnc([C@@H](CCO)CC(=O)Nc3ccc(Cl)cc3F)n2C2CC2)C1` [Example F-519], the concentration giving a half-maximal response (EC50) at mouse RORγ (read-out: LUC EC50 mRORg) and at human RORγ (read-out: LUC EC50 hRORg) was less than 3 µM each time.

`COc1cc(NC(=O)C[C@H](CCO)c2nnc([C@H]3C[C@@H](CC(C)C)C3)n2C2CC2)ccc1Cl` [Example F-520]: the concentration for a half-maximal effect (EC50) on mouse RORγ (read-out: LUC EC50 mRORg) and at human RORγ (read-out: LUC EC50 hRORg) was less than 3 µM in each case.

As for `CC(C)C[C@H]1C[C@@H](c2nnc([C@@H](CCO)CC(=O)NCc3ccc(Cl)cc3Cl)n2C2CC2)C1` [Example F-521], the EC50 on mouse RORγ (read-out: LUC EC50 mRORg) and at human RORγ (read-out: LUC EC50 hRORg) was less than 3 µM each time.

Take `CC(C)C[C@H]1C[C@@H](c2nnc([C@@H](CCO)CC(=O)Nc3ccc(C(F)(F)F)cc3C(F)(F)F)n2C2CC2)C1` [Example F-524]: the EC50 on mouse RORγ (read-out: LUC EC50 mRORg) and at human RORγ (read-out: LUC EC50 hRORg) was less than 3 µM in each case.

As to `Cc1cc(Cl)ccc1NC(=O)C[C@H](CCO)c1nnc([C@H]2C[C@@H](CC(C)C)C2)n1C1CC1` [Example F-525], the EC50 on mouse RORγ (read-out: LUC EC50 mRORg) and on human RORγ (read-out: LUC EC50 hRORg) was less than 3 µM each time.

Regarding `COc1cc(NC(=O)C[C@H](CCO)c2nnc([C@H]3C[C@@H](CC(C)C)C3)n2C2CC2)ccc1C` [Example F-526], the EC50 at mouse RORγ (read-out: LUC EC50 mRORg) and at human RORγ (read-out: LUC EC50 hRORg) was less than 3 µM each time.

Consider `CCC[C@@H](CC(=O)Nc1ccc(C)cc1C)c1nnc(CCCC(C)(C)C)n1C1CC1` [Example F-528], for which the concentration for a half-maximal effect (EC50) at mouse RORγ (read-out: LUC EC50 mRORg) and on human RORγ (read-out: LUC EC50 hRORg) was less than 3 µM throughout.

As for `Cc1ccc(NC(=O)C[C@@H](c2nnc([C@H]3C[C@@H](CC(C)C)C3)n2C2CC2)N(C)C(=O)C(C)C)c(C)c1` [Example F-530], the 50% effective concentration (EC50) at mouse RORγ (read-out: LUC EC50 mRORg) and at human RORγ (read-out: LUC EC50 hRORg) was less than 3 µM throughout.

On to `COc1cc(C)ccc1CNC(=O)C[C@H](CCO)c1nnc([C@H]2C[C@@H](CC(C)C)C2)n1C1CC1` [Example F-535], for which the EC50 at mouse RORγ (read-out: LUC EC50 mRORg) and on human RORγ (read-out: LUC EC50 hRORg) was less than 3 µM throughout.

As for `Cc1ccc(NC(=O)C[C@H](NC(C)C)c2nnc([C@H]3C[C@@H](CC(C)C)C3)n2C2CC2)c(C)c1` [Example F-536], the EC50 on mouse RORγ (read-out: LUC EC50 mRORg) and at human RORγ (read-out: LUC EC50 hRORg) was less than 3 µM each time.

For `Cc1ccc(NC(=O)C[C@@H](c2nnc([C@H]3C[C@@H](CC(C)C)C3)n2C2CC2)N(C)C(C)C)c(C)c1` [Example F-537], the EC50 on mouse RORγ (read-out: LUC EC50 mRORg) and on human RORγ (read-out: LUC EC50 hRORg) was less than 3 µM throughout.

`Cc1ccc(NC(=O)[C@H]2CN(C(=O)OC(C)(C)C)C[C@@H]2c2nnc([C@H]3C[C@@H](CC(C)(C)C)C3)n2C2CC2)c(C)c1` [Example F-540]: the EC50 at mouse RORγ (read-out: LUC EC50 mRORg) and at human RORγ (read-out: LUC EC50 hRORg) was less than 3 µM in each case.

In the case of `Cc1ccc(NC(=O)[C@H]2CN(CC(F)(F)F)C[C@@H]2c2nnc([C@H]3C[C@@H](CC(C)(C)C)C3)n2C2CC2)c(C)c1` [Example F-541], the EC50 on mouse RORγ (read-out: LUC EC50 mRORg) and on human RORγ (read-out: LUC EC50 hRORg) was less than 3 µM in each case.

For `Cc1ccc(NC(=O)[C@H]2CN(S(=O)(=O)C(F)(F)F)C[C@@H]2c2nnc([C@H]3C[C@@H](CC(C)(C)C)C3)n2C2CC2)c(C)c1` [Example F-542], the 50% effective concentration (EC50) at mouse RORγ (read-out: LUC EC50 mRORg) and on human RORγ (read-out: LUC EC50 hRORg) was less than 3 µM throughout.

On to `CC(C)C[C@H]1C[C@@H](c2nnc([C@@H](CCO)CC(=O)Nc3cccc4c3CCC4)n2C2CC2)C1` [Example F-543], for which the concentration giving a half-maximal response (EC50) at mouse RORγ (read-out: LUC EC50 mRORg) and at human RORγ (read-out: LUC EC50 hRORg) was less than 3 µM in each case.

For the compound `Cc1ccc(NC(=O)C[C@@H](c2nnc([C@H]3C[C@@H](CC(C)C)C3)n2C2CC2)N(C)CCO)c(C)c1` [Example F-544], the EC50 on mouse RORγ (read-out: LUC EC50 mRORg) and at human RORγ (read-out: LUC EC50 hRORg) was less than 3 µM throughout.

Consider `Cc1cc(C(F)(F)F)ccc1NC(=O)C[C@H](CCO)c1nnc([C@H]2C[C@@H](CC(C)C)C2)n1C1CC1` [Example F-546], for which the EC50 at mouse RORγ (read-out: LUC EC50 mRORg) and on human RORγ (read-out: LUC EC50 hRORg) was less than 3 µM in each case.

For `Cc1ccc(NC(=O)[C@H]2CN(S(=O)(=O)C(F)(F)F)C[C@@H]2c2nnc(-c3cc(CC(C)C)on3)n2C2CC2)c(C)c1` [Example F-547], the 50% effective concentration (EC50) at mouse RORγ (read-out: LUC EC50 mRORg) and at human RORγ (read-out: LUC EC50 hRORg) was less than 3 µM throughout.

As to `Cc1cc(C)c(NC(=O)C[C@H](CCO)c2nnc([C@H]3C[C@@H](CC(C)C)C3)n2C2CC2)c(F)c1` [Example F-548], the EC50 on mouse RORγ (read-out: LUC EC50 mRORg) and at human RORγ (read-out: LUC EC50 hRORg) was less than 3 µM in each case.

Consider `Cc1ccc(NC(=O)[C@H]2CN(C)C[C@@H]2c2nnc([C@H]3C[C@@H](CC(C)(C)C)C3)n2C2CC2)c(C)c1` [Example F-549], for which the concentration giving a half-maximal response (EC50) on mouse RORγ (read-out: LUC EC50 mRORg) and at human RORγ (read-out: LUC EC50 hRORg) was less than 3 µM in each case.

On to `Cc1ccc(NC(=O)[C@H]2CN(S(=O)(=O)C(F)F)C[C@@H]2c2nnc([C@H]3C[C@@H](CC(C)(C)C)C3)n2C2CC2)c(C)c1` [Example F-550], for which the concentration for a half-maximal effect (EC50) on mouse RORγ (read-out: LUC EC50 mRORg) and at human RORγ (read-out: LUC EC50 hRORg) was less than 3 µM in each case.

In the case of `Cc1ccc(NC(=O)[C@H]2CN(C(=O)C(F)F)C[C@@H]2c2nnc([C@H]3C[C@@H](CC(C)(C)C)C3)n2C2CC2)c(C)c1` [Example F-551], the EC50 at mouse RORγ (read-out: LUC EC50 mRORg) and at human RORγ (read-out: LUC EC50 hRORg) was less than 3 µM throughout.

In the case of `Cc1ccc(NC(=O)[C@H]2CN(S(=O)(=O)C(C)C)C[C@@H]2c2nnc([C@H]3C[C@@H](CC(C)(C)C)C3)n2C2CC2)c(C)c1` [Example F-552], the concentration giving a half-maximal response (EC50) at mouse RORγ (read-out: LUC EC50 mRORg) and on human RORγ (read-out: LUC EC50 hRORg) was less than 3 µM in each case.

As to `Cc1ccc(NC(=O)[C@H]2CN(C(=O)C(C)C)C[C@@H]2c2nnc([C@H]3C[C@@H](CC(C)(C)C)C3)n2C2CC2)c(C)c1` [Example F-553], the EC50 at mouse RORγ (read-out: LUC EC50 mRORg) and on human RORγ (read-out: LUC EC50 hRORg) was less than 3 µM in each case.

Consider `Cc1ccc(NC(=O)C[C@H](OC(C)C)c2nnc([C@H]3C[C@@H](CC(C)C)C3)n2C2CC2)c(C)c1` [Example F-558], for which the 50% effective concentration (EC50) on mouse RORγ (read-out: LUC EC50 mRORg) and on human RORγ (read-out: LUC EC50 hRORg) was less than 3 µM in each case.

Turning to `Cc1ccc(NC(=O)[C@H]2CN(S(=O)(=O)CC(F)(F)F)C[C@@H]2c2nnc([C@H]3C[C@@H](CC(C)(C)C)C3)n2C2CC2)c(C)c1` [Example F-559], the EC50 on mouse RORγ (read-out: LUC EC50 mRORg) and at human RORγ (read-out: LUC EC50 hRORg) was less than 3 µM each time.

The values are drawn from patent publication US20160137639A1, “TRIAZOLE-ISOXAZOLE COMPOUND AND MEDICAL USE THEREOF” (JAPAN TOBACCO INC., priority 2012, published 2016).
